These results are taken from article PMC8493801, “Exploring the Monoterpene Indole Alkaloid Scaffold for Reversing P-Glycoprotein-Mediated Multidrug Resistance in Cancer” (Pharmaceuticals, 2021).

The subject of data set [1] is mouse embryonic fibroblasts (NIH/3T3). Put plainly: MTT antiproliferative assay, non-cancer cells. In kind it is cell-based. The following applies: for SI C/B (Selectivity Index): IC50 NIH/3T3 / IC50 MDR; for SI C/A (Selectivity Index): IC50 NIH/3T3 / IC50 PAR; for IC50: non-cancer mouse embryonic fibroblasts, MTT, read-out: IC50 NIH/3T3 (C). How it is done: (§1) Non-cancer mouse embryonic fibroblasts (NIH/3T3) were also used.
In addition, the antiproliferative activity of the compounds was also evaluated on non-cancerous mouse embryonic fibroblast cells (NIH/3T3), whose values were compared with those of PAR and MDR cells by evaluation of the selective index (SI) values. […] The highest selective index values (SIC/A = 9.39; SIC/B = 10.79) were found for the derivative bearing the trimethoxyphenyl substituent (17).
(§2) L5178Y mouse T-lymphoma cells (ECACC catalog no. 87111908, US FDA, Silver Spring, MD, USA) were transfected with the pHa MDR1/A retrovirus as previously reported. The ABCB1 (P-gp) overexpressing cells were selected by culturing the infected cells with 60 ng/mL of colchicine (Sigma-Aldrich Chemie GmbH, Steinheim, Germany) to preserve the MDR phenotype. L5178Y (parental, PAR) mouse T-cell lymphoma cells and the human ABCB1-transfected subline were cultured in McCoy’s 5A supplemented with 10% heat-inactivated horse serum, 100 U/L L-glutamine, and 100 mg/L penicillin-streptomycin mixture, all obtained from Sigma-Aldrich. The mouse embryonic fibroblast (NIH 3T3) cell line was purchased from ATCC (CRL-1658) and was cultured in DMEM medium supplemented with 10% fetal bovine serum. These adherent cells were detached using 0.25% trypsin and 0.02% EDTA for 5 min at 37 °C. Before the antiproliferative assay using NIH 3T3 cell line, the cells were seeded in untreated 96-well flat bottomed microtiter plates, following a 4 h incubation period in a humidified atmosphere (5% CO2, 95% air) at 37 °C.
On the technique in general: Formazan colour is commonly taken as a measure of viable cells.

Data set [2] deals with sensitive L5178Y mouse T-lymphoma cells (PAR). Put plainly: MTT antiproliferative assay, sensitive cells. The following applies: 72 h, mean ± SD. Type of data set: cell-based. As for the experimental part: as §1, §2
The assay was performed according to the previously applied experimental settings.

The test system of data set [3] is human ABCB1-transfected L5178Y mouse lymphoma cells. Put plainly: Checkerboard combination assay with doxorubicin. In kind it is cell-based. The arrangement: key to CI at ED50 (combination index): CI <1 synergy, =1 additive, >1 antagonism. The following applies: MDR cells; for CI at ED50 (combination index): best ratio. As for the experimental part: The in vitro interactions between the compounds and the well-known antitumor drug and P-gp substrate, doxorubicin, were evaluated in a combination chemotherapy model on human ABCB1-transfected mouse T-lymphoma cells. The nature of drug–drug interactions was assessed by determination of the combination index (CI) using the Chou and Talalay method (Figure 1), and therefore evaluated as synergistic (CI < 1), additive (CI = 1), or antagonistic (CI > 1).
Doxorubicin (2 mg/mL, Teva Pharmaceuticals, Budapest, Hungary) was serially diluted horizontally in 100 µL as previously described, starting with 8.6 µM. The resistance modifier was subsequently diluted vertically in 50 µL; the starting concentration was determined based on the IC50. […] The checkerboard plates were kept for 72 h at 37 °C in a CO2 incubator, and at the end of the incubation period, the cell growth was determined by MTT staining method, as described earlier. Drug interactions were evaluated using Calcusyn software. Each dose–response curve (for individual agents as well as combinations) was fit to a linear model using the median effect equation in order to obtain the median effect value (corresponding to the IC50) and slope (m). The goodness-of-fit was assessed using the linear correlation coefficient, r, and only data from analysis with r > 0.90 were presented. The extent of interaction between drugs was expressed using the combination index, in which a CI value close to 1 indicates additivity, while a CI < 1 is defined as synergy and a CI > 1 as antagonism.

The test system of data set [4] is human ABCB1-gene transfected L5178Y subline (MDR). As to conditions: for RR (relative resistance ratio) = IC50MDR/IC50PAR: RR ≤ 0.5 means CS effect.

The structures appear in SMILES notation. Like-named read-outs stand apart in the source and are kept apart here.

Consider `CC[C@H]1CN(C)[C@H]2Cc3c([nH]c4ccccc34)C(=O)C[C@H]1C2C(=O)OC` (stereo partly shown) [Compound 1, Dregamine], for which, in data set [1], the “SI C/B (Selectivity Index)” value was more than 4.35 and the “SI C/A (Selectivity Index)” value is listed as more than 2.69. In addition, the IC50 in data set [1] (NIH3T3) was more than 100 µM. The same compound returned an IC50 in data set [2] of 37.2 ± 4.99 µM. Besides, in data set [3], the “CI at ED50 (combination index)” value is 0.756. In data set [4], the IC50 came out at 23 ± 0.48 µM and the “RR (relative resistance ratio) = IC50MDR/IC50PAR” value came to 0.62.

For the compound `CCC1CN(C)C2Cc3c([nH]c4ccccc34)C(=NNC(=O)Nc3ccccc3)CC1C2C(=O)OC` (stereo not shown) [Compound 25], in data set [1], the “SI C/B (Selectivity Index)” value is reported as 2.56 and the “SI C/A (Selectivity Index)” value turned out to be 2.13. In data set [1] (NIH3T3), the IC50 is 27.6 ± 0.81 µM. Further, the IC50 in data set [2] is 12.95 ± 0.04 µM. Also, in data set [3], the Interaction result was “Synergism” and the “CI at ED50 (combination index)” value is given as 0.345. In data set [4], the IC50 was 10.8 ± 0.71 µM and the “RR (relative resistance ratio) = IC50MDR/IC50PAR” value amounted to 0.83.

For the compound `CCC1CN(C)C2Cc3c([nH]c4ccccc34)C(=NNC(=O)Nc3ccc([N+](=O)[O-])cc3)CC1C2C(=O)OC` (stereo not shown) [Compound 30, 3-[2″-((4‴-nitrophenyl)carbamoyl)hydrazineylidene]dregamine], in data set [1], the “SI C/B (Selectivity Index)” value is on record as 2.90 and the “SI C/A (Selectivity Index)” value is listed as 2.32. For the same compound, the IC50 in data set [1] (NIH3T3) came out at 14 ± 0.92 µM. Moreover, in data set [2], the IC50 turned out to be 6.04 ± 0.36 µM. Moreover, in data set [3], the Interaction entry was “Synergism” and the “CI at ED50 (combination index)” value was 0.423. Besides, in data set [4], the IC50 was 4.83 ± 0.05 µM and the “RR (relative resistance ratio) = IC50MDR/IC50PAR” value is listed as 0.80.

As for `CCC1CN(C)C2Cc3c([nH]c4ccccc34)C(=NNC(=O)NCCCc3ccccc3)CC1C2C(=O)OC` (stereo not shown) [Compound 32, 3-[2″-((3-phenylpropyl)carbamoyl)hydrazineylidene]dregamine], in data set [1], the “SI C/B (Selectivity Index)” value turned out to be 2.13 and the “SI C/A (Selectivity Index)” value is given as 1.39. The IC50 in data set [1] (NIH3T3) was determined as 9.51 ± 0.52 µM. For the same compound, the IC50 in data set [2] turned out to be 6.82 ± 0.64 µM. In data set [3], the Interaction entry is given as “Synergism” and the “CI at ED50 (combination index)” value turned out to be 0.384. In data set [4], the IC50 amounted to 4.46 ± 1.38 µM and the “RR (relative resistance ratio) = IC50MDR/IC50PAR” value is 0.65.

Regarding `CCC1CN(C)C2Cc3c([nH]c4ccccc34)C(=NNC(=O)NC(C)(C)C)CC1C2C(=O)OC` (stereo not shown) [Compound 23], in data set [1], the “SI C/B (Selectivity Index)” value is more than 8.11 and the “SI C/A (Selectivity Index)” value is given as more than 3.81. Moreover, in data set [1] (NIH3T3), the IC50 is more than 100 µM. The IC50 in data set [2] is 26.3 ± 0.5 µM. Moreover, in data set [3], the Interaction entry is reported as “Strong Synergism” and the “CI at ED50 (combination index)” value worked out at 0.163. Moreover, the IC50 in data set [4] stood at 12.3 ± 1.8 µM.

Take `CCC1CN(C)C2Cc3c([nH]c4ccccc34)C(=NNC(=O)NC3CCCCC3)CC1C2C(=O)OC` (stereo not shown) [Compound 24]: in data set [1], the “SI C/B (Selectivity Index)” value worked out at 4.68 and the “SI C/A (Selectivity Index)” value was determined as 2.07. The IC50 in data set [1] (NIH3T3) stood at 26.6 ± 0.31 µM. The compound further had an IC50 in data set [2] of 12.85 ± 0.12 µM. In data set [3], the Interaction result is given as “Synergism” and the “CI at ED50 (combination index)” value turned out to be 0.301. Moreover, in data set [4], the IC50 stood at 5.69 ± 0.71 µM.

In the case of `CCC1CN(C)C2Cc3c([nH]c4ccccc34)C(=NNC(=O)Nc3ccc(OC)cc3)CC1C2C(=O)OC` (stereo not shown) [Compound 27, 3-[2″-((4‴-methoxyphenyl)carbamoyl)hydrazineylidene]dregamine], in data set [1], the “SI C/B (Selectivity Index)” value came to 6.32 and the “SI C/A (Selectivity Index)” value came out at 5.84. Besides, in data set [1] (NIH3T3), the IC50 worked out at 40.2 ± 3.49 µM. For the same compound, the IC50 in data set [2] came out at 6.88 ± 0.35 µM. Besides, in data set [3], the Interaction entry is on record as “Strong Synergism” and the “CI at ED50 (combination index)” value is 0.225. Moreover, in data set [4], the IC50 amounted to 6.37 ± 0.83 µM and the “RR (relative resistance ratio) = IC50MDR/IC50PAR” value was found to be 0.92.

Take `CCC1CN(C)C2Cc3c([nH]c4ccccc34)C(=NNC(=O)Nc3ccc(Cl)cc3)CC1C2C(=O)OC` (stereo not shown) [Compound 28, 3-[2″-((4‴-chlorophenyl)carbamoyl)hydrazineylidene]dregamine]: in data set [1], the “SI C/B (Selectivity Index)” value was found to be 2.45 and the “SI C/A (Selectivity Index)” value amounted to 2.06. In data set [1] (NIH3T3), the IC50 was 12.8 ± 0.95 µM. The same compound gave an IC50 in data set [2] of 6.22 ± 0.59 µM. Moreover, in data set [3], the Interaction entry is on record as “Strong Synergism” and the “CI at ED50 (combination index)” value was found to be 0.158. In data set [4], the IC50 was 5.21 ± 0.09 µM and the “RR (relative resistance ratio) = IC50MDR/IC50PAR” value worked out at 0.84.

`CCC1CN(C)C2Cc3c([nH]c4ccccc34)C(=NN=Cc3ccc(Br)cc3)CC1C2C(=O)OC` (stereo not shown) [Compound 8, 3-[(4″-bromobenzylidene)hydrazineylidene]dregamine]: in data set [1], the “SI C/B (Selectivity Index)” value is 1.56 and the “SI C/A (Selectivity Index)” value was 1.32. Moreover, in data set [1] (NIH3T3), the IC50 amounted to 11.7 ± 2.07 µM. The IC50 in data set [2] is 8.84 ± 0.76 µM. Besides, in data set [3], the Interaction entry was “Synergism” and the “CI at ED50 (combination index)” value turned out to be 0.451. Also, in data set [4], the IC50 is 7.47 ± 0.17 µM and the “RR (relative resistance ratio) = IC50MDR/IC50PAR” value is recorded as 0.85.

Turning to `CCC1CN(C)C2Cc3c([nH]c4ccccc34)C(=NN=Cc3c(O)ccc4ccccc34)CC1C2C(=O)OC` (stereo not shown) [Compound 19, 3-[((2″-hydroxy-1″naphthalenyl)methylene)hydrazineylidene]dregamine], in data set [1], the “SI C/B (Selectivity Index)” value came out at 1.35 and the “SI C/A (Selectivity Index)” value is listed as 1.35. The IC50 in data set [1] (NIH3T3) was 17.5 ± 1.03 µM. In data set [2], this compound displayed an IC50 of 12.9 ± 0.35 µM. In data set [3], the Interaction result is “Strong Synergism” and the “CI at ED50 (combination index)” value was determined as 0.222. For the same compound, in data set [4], the IC50 was found to be 12.9 ± 0.35 µM and the “RR (relative resistance ratio) = IC50MDR/IC50PAR” value is reported as 1.00.

For `CCC1CN(C)C2Cc3c([nH]c4ccccc34)C(=NN=Cc3ccc(Cl)cc3)CC1C2C(=O)OC` (stereo not shown) [Compound 9, 3-[(4″-chlorobenzylidene)hydrazineylidene]dregamine], in data set [1], the “SI C/B (Selectivity Index)” value was determined as 1.47 and the “SI C/A (Selectivity Index)” value came out at 0.67. Besides, the IC50 in data set [1] (NIH3T3) came out at 9.67 ± 0.94 µM. For the same compound, in data set [2], the IC50 was 14.5 ± 0.84 µM. In data set [3], the Interaction result is listed as “Strong Synergism” and the “CI at ED50 (combination index)” value came to 0.194. Also, in data set [4], the IC50 was found to be 6.57 ± 0.12 µM.

As to `CCCCCNC(=O)NN=C1CC2C(CC)CN(C)C(Cc3c1[nH]c1ccccc31)C2C(=O)OC` (stereo not shown) [Compound 22], in data set [1], the “SI C/B (Selectivity Index)” value came out at 6.24 and the “SI C/A (Selectivity Index)” value is 4.92. The IC50 in data set [1] (NIH3T3) came to 26.7 ± 0.63 µM. In data set [2], this compound displayed an IC50 of 5.43 ± 0.38 µM. In data set [3], the Interaction result is reported as “Strong Synergism” and the “CI at ED50 (combination index)” value was 0.219. Besides, in data set [4], the IC50 was 4.28 ± 0.25 µM and the “RR (relative resistance ratio) = IC50MDR/IC50PAR” value stood at 0.79.

Regarding `N.N.[Cl][Pt][Cl]` [Cisplatin, reference compound], the IC50 in data set [1] is 1.06 ± 0.02 µM; in data set [2], 8.16 ± 1.7 µM.

As for `CCC1CN(C)C2Cc3c([nH]c4ccccc34)C(=NN=Cc3ccccc3Br)CC1C2C(=O)OC` (stereo not shown) [Compound 4, 3-[(2″-bromobenzylidene)hydrazineylidene]dregamine], in data set [1], the “SI C/B (Selectivity Index)” value is recorded as 3.22 and the “SI C/A (Selectivity Index)” value is on record as 1.83. Further, in data set [1] (NIH3T3), the IC50 is 34.9 ± 5.63 µM. Moreover, the IC50 in data set [2] was determined as 19.1 ± 0.76 µM. In addition, in data set [4], the IC50 came out at 10.9 ± 1.34 µM and the “RR (relative resistance ratio) = IC50MDR/IC50PAR” value is given as 0.57.
